{"source": "patent US6537523B1", "about": "“Diagnosis and treatment of cancer having clonal macrophage involvement” (The Regents of the University of California, priority 1994, dated 2003)", "origin": "cited, not measured here", "system": "HIV antigens in human blood cells including macrophages", "data": [{"substance": "Trichosanthin", "values": [{"measurement": "expression of HIV antigens", "result": "inhibit expression of HIV antigens"}]}]}
